Here are results for 5 compounds from patent US20170027940A1, “METHOD FOR TREATING CANCER” (STICHTING HET NEDERLANDS KANKER INSTITUUT, priority 2014, published 2017).

Assay [1] deals with PLX4720-resistant MITF^acq^_^gain cells. Briefly: long-term viability assay, crystal violet staining. It counts as cell-based, human. The note with it: crystal violet after 6 days. On the procedure: FIG. 5: Loss of MITF confers cross-resistance and increases invasiveness of resistant cells. Two PLX4270-resistant cells lines (Me1888 and SkMe128) and their treatment-naïve counterparts were treated with either ERKi, MEKi, the BRAFinhibitor Dabrafenib or a combination of the latter and stained with crystal violet after 6 days of treatment.
(§1) Cell line sources: Melanoma cell lines and HEK293T were cultured in DMEM/9% FBS (Sigma), 2 mM glutamine, 100 U/mL penicillin and 0.1 mg/mL streptomycin (all Gibco) under standard conditions. HEK293T cells were used for virus production for MITF-overexpression and shRNAs. Briefly HEK293T cells were transfected with the plasmid of interest and the helper plasmids (pMDLglpRRE, pHCMV-G, and pRSVrev). Viral supernatant was either fresh frozen or subsequently used for infection. Infected melanoma cells were positively selected with puromycin (Sigma). For dose response curve and colony formation assay cells were plated in a line-specific manner. Equal concentration of inhibitors was added one day after set up. For short-term viability assay (dose response curve) cells were plated in a 96-well format and drugs diluted with the HP D300 Digital Dispenser (Tecan). […] Two hours later luminescence was measured by the infinite M200 microplate reader (Tecan, Giessen, Germany). […]

For assay [2], the system named is MITF^endo^_^hi and MITF^endo^_^lo cell lines. In words: dose response curve (short-term viability assay). The note with it: four MITF^endo^_^lo versus four MITF^endo^_^hi cell lines. It counts as cell-based, human.
Protocol: Cell line sources: Melanoma cell lines and HEK293T were cultured in DMEM/9% FBS (Sigma), 2 mM glutamine, 100 U/mL penicillin and 0.1 mg/mL streptomycin (all Gibco) under standard conditions. […] For dose response curve and colony formation assay cells were plated in a line-specific manner. Equal concentration of inhibitors was added one day after set up. For short-term viability assay (dose response curve) cells were plated in a 96-well format and drugs diluted with the HP D300 Digital Dispenser (Tecan). After three to five days incubation old medium was replaced by a dilution of CellTiter Blue reagent or CellTiter-Glo Luminescent Cell Viability Assay (Promega, Madison, Wiss.) in medium. Two hours later luminescence was measured by the infinite M200 microplate reader (Tecan, Giessen, Germany).
(§2) We then determined the spectrum of drug sensitivity among the MITF^endo^_^lo and MITF^endo^_^hi cells.
The test system of assay [3] is AXL-expressing PLX4270-resistant melanoma cells. Briefly: long-term viability assay, crystal violet staining. As to conditions: 0.3 μM AXL inhibitor, nine days, in two out of three resistant cell lines. The format is cell-based, human. How it is done:
FIG. 12: AXL-expressing PLX4270-resistant melanoma cells were exposed to 0.3 μM AXL inhibitor for nine days and the remaining cells stained with crystal violet.
as §1
Next, we determined the expression pattern of these RTKs in acquired resistance, particularly in PLX4720-sensitive cells and their resistant counterparts. […]

Assay [4] has as its system MITF^endo^_^lo and MITF^endo^_^hi BRAF mutant melanoma cells. Briefly: cell proliferation assay and PARP cleavage. The note with it: 5 μM, six days; MITF^endo^_^lo versus MITF^endo^_^hi cells. It counts as cell-based, human.
Protocol: FIG. 7: BRAFV600E mutant melanoma cells were plated in low density and treated with 5 μM PLX4270 for 6 days or left untreated and stained with crystal violet (left panel).
Cell line sources: Melanoma cell lines and HEK293T were cultured in DMEM/9% FBS (Sigma), 2 mM glutamine, 100 U/mL penicillin and 0.1 mg/mL streptomycin (all Gibco) under standard conditions. […] For dose response curve and colony formation assay cells were plated in a line-specific manner. Equal concentration of inhibitors was added one day after set up. For short-term viability assay (dose response curve) cells were plated in a 96-well format and drugs diluted with the HP D300 Digital Dispenser (Tecan). After three to five days incubation old medium was replaced by a dilution of CellTiter Blue reagent or CellTiter-Glo Luminescent Cell Viability Assay (Promega, Madison, Wiss.) in medium. Two hours later luminescence was measured by the infinite M200 microplate reader (Tecan, Giessen, Germany). Long-term viability assays were performed in 6-well or 12-well format. Inhibitors solutions were replaced every two to three days and plates stained with crystal violet after six to nine days of treatment (as indicated). For immunoblot analysis cells were treated on 10 cm dishes and snap-frozen after harvesting.
as §2
The test system of another assay is ERK phosphorylation. Briefly: immunoblot of ERK phosphorylation. The format is cell-based, human. As to conditions: 5 μM; irrespective of MITF status. On the technique in general: In western blotting, separated proteins are transferred to a membrane and probed.
Assay [5] has as its system receptor tyrosine kinases (RTKs). In words: phospho-RTK array. It counts as cell-based, human. As to conditions: 5 μM, two days.
Protocol: Phospho-RTK assay was performed using the human Phospho-RTK Array from RD Systems (Minneapolis, USA). All steps were performed according to the manufactures protocol.
Encouraged by these findings, we compared the phosphorylation status of RTKs in one MITF^endo^_^lo and one MITF^endo^_^lo cell line.
In another assay the test system is MITF. Briefly: MITF expression during acquisition of resistance. The format is cell-based, human. As to conditions: short-term exposure, M229 and M238 MITF^acq^_^loss melanoma cell lines. How it is done: RNA was isolated using Trizol (Ambion), following standard protocol. Reverse transcription was performed using a kit from Invitrogen. Primers were designed using Primer Express software. QRT-PCR was performed with SYBR green master mix (Applied Biosystems) on a StepOnePlus Real-Time PCR system (Applied Biosystems, Warrington, UK). RNA levels were normalized against beta-actin or RPL13. Following primers were used: To study the dynamics of MITF downregulation as a function of the acquisition of a resistant phenotype, two independent MITF^acq^_^loss melanoma cell lines (M229 and […]; {Shi:2014fm}) were permanently exposed to 1 μM vemurafenib and monitored in time.

The test system of assay [6] is BRAFV600E mutant melanoma cell line (04.07). In words: sensitivity of screening cell line to ERK inhibitor. The format is cell-based, human. The note with it: not all cells are killed even at high concentration. On the procedure:
The insertional mutagenesis screen was performed as described previously (Lu et al. Proc Natl Acad Sci U S A. (2009) 22;106(38):16339-44). Briefly, an intermediate sensitive melanoma cell line of low passage (Me104.07) was infected separately with the three different VBIM constructs (SD1-3). Two days after infection cells were exposed to 1 μM […] for three weeks till single colonies had formed. These were picked and separately cultured. For identification of insertions Splinkerette-PCR was used according to the published protocol and Sanger sequencing applied on amplified products.
To identify proteins conferring resistance to MAPK pathway inhibition by the recently available ERK inhibitor 5CH772984, we performed a lentiviral insertional mutagenesis screen using the VBIM system. Carrying a GFP-sequence and a strong CMV promoter, the virus integrates in the genome, resulting in an activation of downstream sequences that leads to overexpression of a FLAG-tagged protein. Due to […] excision the insertion can be excised by addition of 4-Hydroxytamoxifen (4-OHT). […] We infected this cell line with the three versions of the insertional mutagenesis vector (SD1-3). After three weeks of culturing in the presence of 1 μM SCH772984, we were able to pick drug-resistant clones and individually expanded them. […]

In assay [7] the test system is BRAF and BRAF/MEK inhibitor-resistant cells. The note with it: Morris et al. 2013; cited from earlier work.

Protocol for ERK phosphorylation: For immunoblot analysis cells were treated on 10 cm dishes and snap-frozen after harvesting.
Cells were lysed in RIPA buffer and protein concentration measured with Bio-Rad protein assay. Immunoblots were performed according to standard protocols on 4 to 12% bis-Tris precast or 3-8% tris-acetate gels (NuPage). […] MAP kinase p44/42 thy202/Tyr204 (9106) and PDGFRbeta (31695) from Cell Signaling.

For the compound `CC(C)(C)c1nc(-c2cccc(NS(=O)(=O)c3c(F)cccc3F)c2F)c(-c2ccnc(N)n2)s1` [Dabrafenib], in [1], the “sensitivity in long-term experiment” value was “resistant”.
Regarding `CC(=O)Nc1cccc(-n2c(=O)n(C3CC3)c(=O)c3c(Nc4ccc(I)cc4F)n(C)c(=O)c(C)c32)c1` [MEKi], the “increase in resistance, as measured from the IC50 values” in [2] is given as “up to 1000 fold”.
Turning to `Nc1nc(Nc2ccc3c(c2)CCC(N2CCCC2)CC3)nn1-c1cc2c(nn1)-c1ccccc1CCC2` (stereo not shown) [R428], the “proliferation/viability upon drug treatment” value in assay [3] is reported as “strong decrease in proliferation/viability”.
As to `CCCS(=O)(=O)Nc1ccc(F)c(C(=O)c2c[nH]c3ncc(Cl)cc23)c1F` [PLX4720], in [4], the “survival of cells upon exposure” value is given as “clear survival benefit”. Further, the ERK phosphorylation entry in the assay with ERK phosphorylation is “diminished”. For the same compound, the “activation of RTKs” value in assay [5] (MITF^endo^_^hi cells) is recorded as “only a minor activation”; in assay [5] (MITF^endo^_^lo cells), “further increased”. The MITF expression result in the assay on MITF is “sharply dropped”.
For the compound `O=C(Nc1ccc2[nH]nc(-c3ccncc3)c2c1)[C@@H]1CCN(CC(=O)N2CCN(c3ccc(-c4ncccn4)cc3)CC2)C1` [SCH772984], in assay [6], the “sensitivity to the inhibitor” value is given as “intermediately sensitive”. In addition, in assay [7], the proliferation entry is reported as “effectively block proliferation”.
